We go through eleven compounds from patent publication US20260042754A1, “Substituted Bicyclic Heteroaryl Sulfonamide Derivatives for the Treatment of Cancer” (NODUS ONCOLOGY LIMITED, priority 2022, published 2026).

Test [1] has as its target Recombinant His-tagged human PARG protein (Homo sapiens (Human), UniProt Q86W56). The test can be described thus: PARG enzymatic assay (TFMU-ADPr fluorescence). It is filed as biochemical. Particulars: 1 nM enzyme, 200 μM TFMU-ADPr, read after 30 minutes. As for the experimental part:
Inhibition of PARG enzymatic activity by compounds was determined as follows: Recombinant His-tagged human PARG protein expressed in Sf21 insect cells (Adipogen AG, #40T-0022) was aliquoted and stored at −80° C. until use. The artificial enzyme substrate 4-(trifluoromethyl)umbelliferone (TFMU)-ADPr was prepared essentially as described (Drown B S et al, Cell Chemical Biology 2018) and stored at −20° C. as 10 mM stock solutions in DMSO (dimethyl sulfoxide) until use. For reactions, typical final concentration of the enzyme was 1 nM and of the TFMU-ADPr 200 μM. Reactions were carried out in black 384-well low volume round bottom assay plates (Corning, #4514) in a final volume of 10 μL. To this end, PARG was diluted to 1.67 nM in reaction buffer (50 mM K2HPO4, 50 mM KCl, 10 mM β-mercaptoethanol, pH 7.4) and 6 μL were dispensed per assay well using a multichannel pipette. Then compound was dispensed into each well using an Echo dispenser (BeckmanCoulter) to yield the pre-specified final concentration of the range of concentrations to be tested (typically 8-point serial concentrations ranging from either from 0.01 to 10 μM, or from 0.001 to 1 μM, or from 0.0001 to 0.1 μM), and being volume-corrected with 100% DMSO (0.5% final DMSO concentration in reaction mixtures). Plates were mixed, and after 15 minutes 4 μL TFMU-ADPr was added into each well using a multichannel pipette followed by brief mixing. Fluorescence intensity signals were then measured after 30 minutes on an EnVision microplate reader (PerkinElmer) using 380/10 nm and 535/25 nm filters for the excitation and emission, respectively (gain: 150). The assay window was set using DMSO control (top) and a control containing no PARG enzyme (bottom). Delta values were plotted as concentration-response curves fitted to a sigmoidal 4-parameter logistic model to calculate IC50 values (Scigilian Analyze).

For test [2], the target named is human PARG (PARG-NanoLuc fusion in HEK293T cells) (Homo sapiens (Human), UniProt Q86W56). The test can be described thus: PARG NanoBRET-based cellular target engagement assay. It is filed as cell-based. As to conditions: HEK293T cells transfected with PARG-NanoLuc, NanoBRET probe 0.89 μM, 2 hours; read-out: PARG TE IC50. As for the experimental part:
PARG Nano-luciferase construct: The PARG-NanoLuc® fusion vector was generated by Promega, by inserting the full length human PARG cDNA sequence encoding the 976 amino acid protein (Gene ID: 8505, UniProt: Q86W56) into the pNLF1-C [CMV/Hygro] vector (C-terminal fusions with NanoLuc® enzyme).
PARG target engagement tracer synthesis: The NanoBRET tracer for PARG was prepared following a previously reported general tracer synthesis procedure.
PARG Probe Displacement Assay Using NanoBRET: HEK293T (DSMZ #ACC 635) cells transiently transfected with the PARG-NanoLuc fusion construct were resuspended in phenol red-free OptiMEM (Gibco #11058-021) to a concentration of 2.4×10^5 cells/mL. 9 μL per well were then added to a white 384-well low volume microplate (Greiner #784080) and incubated for 24 hours under standard growth conditions.
Then compound was dispensed into each well using an Echo dispenser (BeckmanCoulter) to yield the pre-specified final concentration of the range of concentrations to be tested (typically 8-point serial concentrations ranging from either from 0.01 to 10 μM, or from 0.001 to 1 μM, or from 0.0001 to 0.1 μM), and being volume-corrected with 100% DMSO (0.5% final DMSO concentration in reaction mixtures).
After mixing and an incubation at room temperature for 15 min 1 μl of the NanoBRET probe (at 0.89 μM final concentration) was added to the microplate using a multichannel pipette. The plate was mixed and incubated in a 5% CO2 environment at 37° C. for 2 hours, and then 5 μL per well of a solution consisting of a 1:31.25 dilution of Nano-Glo substrate (Promega) and a 1:500 dilution of NanoLuc extracellular inhibitor (Promega) in phenol red-free OptiMEM was added to each well followed by another mixing step. Filtered luminescence was measured on an EnVision plate reader (PerkinElmer) equipped with a 460 nm filter (donor) and a 645 nm filter (acceptor). BRET ratios were plotted as concentration-response curves fitted to a sigmoidal 4-parameter logistic model to calculate IC50 values (Scigilian Analyze).
A general note: BRET reads energy transfer from a luciferase to a nearby fluorophore.

In a further test the test system is NCI-H1650. The test can be described thus: Modified cell proliferation assay (CellTiter-Glo), NCI-H1650. It is filed as cell-based. As to conditions: Homo sapiens, NCI-H1650; modified protocol, 384-well, 300 cells per well, 120 h; highest concentration tested 30000 nM; read-out: NCI-H1650 GI50 (high PARG dependency). How it is done:
The cell proliferation assay protocol was modified and used for RMUG-S for Examples 12-44, and subsequently used to test Examples 1-44 in the NCI-H1650 cell line.
NCI-H1650 (ATCC, #CRL-5883) or RMUG-S were seeded on day 1 at 300 cells per well in a 384-well plate (Greiner, #781080) that assure assay linearity and optimal signal intensity in 25 μL of RPMI1640 media (Pan Biotech, #P04-22100) containing 10% FCS (Capricorn, #FBS-11A; Lot. CP22-5141) and 1% Glutamine (Pan Biotech, #P04-80100). After incubation for 24 h in humidified chambers at 37° C./5% CO2, compounds/DMSO were dispensed at different concentrations using an Echo 520 (Beckman Coulter). Cells were further incubated for 120 h at 37° C. and 5% CO2. Cells treated with the compound vehicle DMSO were used as negative controls and cells treated with 10 μM Staurosporine (LC Laboratories, #S-9300) served as positive controls.
At day 6 the CellTiter Glo Reagent was prepared according to the instructions of the kit (Promega Inc.): Reagent was mixed 1:1 with cell culture medium. Thereon, mixture and assay plates were equilibrated at room temperature for 20 min. Equal volumes of the reagent-medium-mixture were added to the volume of culture medium present in each well. The plates were mixed at […] for 2 minutes on an orbital shaker (Timix5, Edmund Buehler GmbH). The microplates were then incubated at room temperature for 10 minutes for stabilization of the luminescent signal. Following incubation, the luminescence was recorded on a Victor X5 microplate reader (Perkin Elmer) using a 200 ms integration time. The data was then analyzed with Excel using the XLFIT Plugin (dose response Fit 205) for determination of the concentration necessary for half-maximal inhibition (i.e. the inflection point of the fitted curve).
As quality control the Z′-factor was calculated from 16 positive and negative control values. Only assay results showing a Z′-factor≥0.5 were used for further analysis.
(In general: Cellular ATP, detected with luciferase, serves as a proxy for viable cell number.)

Chain of Recombinant His-tagged human PARG protein (Q86W56 whole entry): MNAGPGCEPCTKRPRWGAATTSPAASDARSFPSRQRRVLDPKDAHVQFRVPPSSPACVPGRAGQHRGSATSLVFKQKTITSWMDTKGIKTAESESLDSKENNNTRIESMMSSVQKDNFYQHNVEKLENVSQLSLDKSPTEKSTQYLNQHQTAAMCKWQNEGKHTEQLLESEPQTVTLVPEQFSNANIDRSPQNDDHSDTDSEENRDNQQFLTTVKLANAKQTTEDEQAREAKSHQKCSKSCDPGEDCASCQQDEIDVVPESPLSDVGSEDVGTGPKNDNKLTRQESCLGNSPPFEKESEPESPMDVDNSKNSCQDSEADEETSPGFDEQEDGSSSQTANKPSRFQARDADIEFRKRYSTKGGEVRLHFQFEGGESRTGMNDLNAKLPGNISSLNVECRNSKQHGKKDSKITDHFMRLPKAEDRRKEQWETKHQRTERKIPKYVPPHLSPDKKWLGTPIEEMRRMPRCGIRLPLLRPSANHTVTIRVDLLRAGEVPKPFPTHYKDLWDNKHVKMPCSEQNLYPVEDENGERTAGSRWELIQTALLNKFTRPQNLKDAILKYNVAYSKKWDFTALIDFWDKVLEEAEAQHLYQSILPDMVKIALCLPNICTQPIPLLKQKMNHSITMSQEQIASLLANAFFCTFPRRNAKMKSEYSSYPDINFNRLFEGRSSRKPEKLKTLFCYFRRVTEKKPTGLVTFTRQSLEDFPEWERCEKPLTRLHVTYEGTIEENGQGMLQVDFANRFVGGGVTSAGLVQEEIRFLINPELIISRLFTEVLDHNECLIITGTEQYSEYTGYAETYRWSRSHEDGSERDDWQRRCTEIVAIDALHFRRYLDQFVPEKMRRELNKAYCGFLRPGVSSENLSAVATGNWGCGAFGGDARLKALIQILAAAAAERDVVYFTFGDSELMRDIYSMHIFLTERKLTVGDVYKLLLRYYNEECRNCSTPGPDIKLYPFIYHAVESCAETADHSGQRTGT
Chain of human PARG (PARG-NanoLuc fusion in HEK293T cells) (Q86W56 whole entry, the tested form may be a part): as the sequence (Q86W56 whole entry) above

For `CO/N=c1\[nH]c2c(-c3cnc(C(=O)N(C)C)[nH]3)cc(S(=O)(=O)NC3(C)CC3)cc2c(=O)n1Cc1cnn(C)c1` [Example 23, (E)-5-(2-(methoxyimino)-3-((1-methyl-1H-pyrazol-4-yl)methyl)-6-(N-(1-methylcyclopropyl)sulfamoyl)-4-oxo-1,2,3,4-tetrahydroquinazolin-8-yl)-N,N-dimethyl-1H-imidazole-2-carboxamide], the IC50 in test [1] and in test [2] was under 30 nM in each case. Also, the GI50 – broadly, the concentration giving 50% growth inhibition – in the test with NCI-H1650 was 500 to 2000 nM.

Take `CO/N=c1\[nH]c2c(N3CCN(C(=O)CC(F)(F)F)[C@H](C)C3)cc(S(=O)(=O)NC3(C)CC3)cc2c(=O)n1Cc1cnn(C)c1` [Example 31, (R,E)-2-(methoxyimino)-3-((1-methyl-1H-pyrazol-4-yl)methyl)-8-(3-methyl-4-(3,3,3-trifluoropropanoyl)piperazin-1-yl)-N-(1-methylcyclopropyl)-4-oxo-1,2,3,4-tetrahydroquinazoline-6-sulfonamide]: the 50% inhibitory concentration (IC50) in test [1] and in test [2] was under 30 nM each time. The GI50 in the test on NCI-H1650 was under 500 nM.

In the case of `CON=c1[nH]c2ccc(S(=O)(=O)NC3(C#N)CC3)cc2c(=O)n1Cc1cnn(C)c1` [Example 9, N-(1-cyanocyclopropyl)-2-methoxyimino-3-[(1-methylpyrazol-4-yl)methyl]-4-oxo-1H-quinazoline-6-sulfonamide], the IC50 (usually the midpoint of a concentration-inhibition curve) is under 30 nM in test [1] and 30 to 99 nM in test [2]. In addition, in the test on NCI-H1650, the concentration for 50% growth inhibition (GI50) was over 2000 nM.

Turning to `CO/N=c1\[nH]c2c(N3CCN(C(=O)C(C)C)[C@H](C)C3)cc(S(=O)(=O)NC3(C)CC3)cc2c(=O)n1Cc1cnn(C)c1` [Example 35, (R,E)-8-(4-isobutyryl-3-methylpiperazin-1-yl)-2-(methoxyimino)-3-((1-methyl-1H-pyrazol-4-yl)methyl)-N-(1-methylcyclopropyl)-4-oxo-1,2,3,4-tetrahydroquinazoline-6-sulfonamide], the 50% inhibitory concentration (IC50) in test [1] and in test [2] was under 30 nM in each case. The GI50 in the test on NCI-H1650 is under 500 nM.

Regarding `CO/N=c1\[nH]c2c(-c3ccc(C(=O)N(C)C)c(C)c3)cc(S(=O)(=O)NC3(C)CC3)cc2c(=O)n1Cc1cnn(C)c1` [Example 14, (E)-4-(2-(methoxyimino)-3-((1-methyl-1H-pyrazol-4-yl)methyl)-6-(N-(1-methylcyclopropyl)sulfamoyl)-4-oxo-1,2,3,4-tetrahydroquinazolin-8-yl)-N,N,2-trimethylbenzamide], the IC50 in test [1] and in test [2] was under 30 nM in each case. Moreover, the 50% growth inhibitory concentration (GI50) in the test with NCI-H1650 is under 500 nM.

As for `CO/N=c1\[nH]c2c(N3CCN(C(=O)N(C)CC(F)(F)F)[C@H](C)C3)cc(S(=O)(=O)NC3(C)CC3)cc2c(=O)n1Cc1cnn(C)c1` [Example 37, (R,E)-4-(2-(methoxyimino)-3-((1-methyl-1H-pyrazol-4-yl)methyl)-6-(N-(1-methylcyclopropyl)sulfamoyl)-4-oxo-1,2,3,4-tetrahydroquinazolin-8-yl)-N,2-dimethyl-N-(2,2,2-trifluoroethyl)piperazine-1-carboxamide], the half-inhibitory concentration (IC50) in test [1] and in test [2] was under 30 nM in each case. Also, in the test on NCI-H1650, the GI50 is under 500 nM.

Consider `CO/N=c1\[nH]c2c(-c3ccc(C(N)=O)cc3)cc(S(=O)(=O)NC3(C)CC3)cc2c(=O)n1Cc1cnn(C)c1` [Example 15, (E)-4-(2-(methoxyimino)-3-((1-methyl-1H-pyrazol-4-yl)methyl)-6-(N-(1-methylcyclopropyl)sulfamoyl)-4-oxo-1,2,3,4-tetrahydroquinazolin-8-yl)benzamide], for which the IC50 was under 30 nM in test [1] and 30 to 99 nM in test [2]. For the same compound, the GI50 in the test with NCI-H1650 was over 2000 nM.

In the case of `CO/N=c1\[nH]c2c(N3CCN(C(=O)N4CCC(F)(F)C4)[C@H](C)C3)cc(S(=O)(=O)NC3(C)CC3)cc2c(=O)n1Cc1cnn(C)c1` [Example 36, (R,E)-8-(4-(3,3-difluoropyrrolidine-1-carbonyl)-3-methylpiperazin-1-yl)-2-(methoxyimino)-3-((1-methyl-1H-pyrazol-4-yl)methyl)-N-(1-methylcyclopropyl)-4-oxo-1,2,3,4-tetrahydroquinazoline-6-sulfonamide], the IC50 in test [1] and in test [2] was under 30 nM each time. The concentration for 50% growth inhibition (GI50) in the test on NCI-H1650 is under 500 nM.

As to `CO/N=c1\[nH]c2c(-c3ccc(C(=O)N(C)C)nc3)cc(S(=O)(=O)NC3(C)CC3)cc2c(=O)n1Cc1cnn(C)c1` [Example 19, (E)-5-(2-(methoxyimino)-3-((1-methyl-1H-pyrazol-4-yl)methyl)-6-(N-(1-methylcyclopropyl)sulfamoyl)-4-oxo-1,2,3,4-tetrahydroquinazolin-8-yl)-N,N-dimethylpicolinamide], the IC50 in test [1] and in test [2] was under 30 nM each time. In addition, the GI50 in the test with NCI-H1650 was in the range of 500 to 2000 nM.

For `CO/N=c1\[nH]c2c(N3CCN(C(=O)C4CCCC4)[C@H](C)C3)cc(S(=O)(=O)NC3(C)CC3)cc2c(=O)n1Cc1cnn(C)c1` [Example 39, (R,E)-8-(4-(cyclopentanecarbonyl)-3-methylpiperazin-1-yl)-2-(methoxyimino)-3-((1-methyl-1H-pyrazol-4-yl)methyl)-N-(1-methylcyclopropyl)-4-oxo-1,2,3,4-tetrahydroquinazoline-6-sulfonamide], the 50% inhibitory concentration (IC50) in test [1] and in test [2] was under 30 nM in each case. Further, the GI50 with NCI-H1650 was under 500 nM.

`CO/N=c1\[nH]c2c(-c3ccc(C(=O)N(C)C)cn3)cc(S(=O)(=O)NC3(C)CC3)cc2c(=O)n1Cc1cnn(C)c1` [Example 20, (E)-6-(2-(methoxyimino)-3-((1-methyl-1H-pyrazol-4-yl)methyl)-6-(N-(1-methylcyclopropyl)sulfamoyl)-4-oxo-1,2,3,4-tetrahydroquinazolin-8-yl)-N,N-dimethylnicotinamide]: the half-maximal inhibitory concentration (IC50) in test [1] and in test [2] was under 30 nM each time. Moreover, the 50% growth inhibitory concentration (GI50) with NCI-H1650 was in the range of 500 to 2000 nM.
